According to patent publication US3980646A, “3-Methylpyrazole-5-carboxylates and medicaments containing these compounds” (Wulfing; Johann A., priority 1974, dated 1976):
Values joined by “and” are separate entries in the source; they are usually repeats but may differ in a detail not shown here. Identical values can stand only once.

Key:
serum triglycerides = experiment: influence on the serum triglycerides of repeated application; type: in vivo, rats male (Wistar); conditions: 4th day, 100 mg/kg x/day p.o.
Method: Influence on the serum triglycerides of repeated application of
100 mg/kg x/day p.o. rats male, starve for 5 hours, ether narcosis, heart
last application 1 hour before killing (cf. FIG. 3)

mice = experiment: LD50 in mice; type: in vivo
serum fatty acids (FFS) = experiment: influence on the serum fatty acids (FFS) of normal animals; type: in vivo, Female rats (Wistar); conditions: normal female rats, 100 mg/kg oral, 1 hour after application
Method: (§1) Investigations on a total of 260 Wistarrats were conducted with 7-[3-(N-methyl-N-2-hydroxyethyl)-amino-2-hydroxypropyl]-1,3-dimethylxanthine-3-methylpyrazole-5-carboxylate.
(§2) Examination of the influence of 7-[3-(N-methyl-N-2-hydroxy-
(§3) ethyl)-amino-2-hydroxypropyl]-1,3-dimethylxanthine-3-methyl-
(§4) pyrazole-5-carboxylate on the serum fatty acids (FFS) of
Female rats, starve for 5 hours
(§5) Dose: 100 mg/kg body weight, oral by esophagus probe,
(§6) Blood removal: 1 hour after application

serum triglycerides (TG) = experiment: influence on the serum triglycerides (TG) in normal animals; type: in vivo, Rats (Wistar); conditions: for TG: starve for 5 hours; for TG, mean (x): 1 hour
Method: Rats, starve for 5 hours
40 mg/kg body weight of active principle according to
the invention, oral by esophagus probe 1 hour before
12 mg/kg body weight of 3-methylpyrazole-5-carboxylic
acid, equim. dosage, 1 hour before removal of blood
Dose: 10 mg/kg body weight of active principle according to the
invention, oral by esophagus probe 1 hour before blood removal
Dose: 3 mg/kg body weight of 3-methylpyrazole-5-carboxylic acid,
equim. dosage, oral by esophagus probe 1 hour before

free fatty acids (FFS) = experiment: influence on the free fatty acids (FFS) in starved (hyperlipacidaemic) animals, hunger lipolysis; type: in vivo, rats (Wistar)
Method: as §1, §2, §3, §4
Male Rats, starve for 17 hours
as §5, §6
pyrazole-5-carboxylate on the free fatty acids (FFS) in
starved animals 1 hour after application
Comparative examinations of the influence of 7-[3-(N-methyl-
carboxylic acid on the free fatty acids (FFS) in starved
animals 1 hour after application
pyrazole-5-carboxylic acid on the free fatty acids (FFS)
in starved animals 6 hours after application

cholesterol = experiment: assaying for cholesterol in starved rats; type: in vivo, Male Rats (Wistar)
Method: Assaying for cholesterol
Male Rats, starve for 18 hours, ether narcosis, heart puncture
100 mg/kg of 7-[3-(N-methyl-N-

[1] = individual animals, starve for 5 hours, 100 mg/kg

**Q.** How did the serum triglycerides (serum triglycerides; [1]) turn out when CN(CCO)CC(O)Cn1cnc2c1c(=O)n(C)c(=O)n2C.Cc1cc(C(=O)O)[nH]n1 (stereo not drawn) [7-[3-(N-methyl-N-2-hydroxyethyl)-amino-2-hydroxypropyl]-1,3-dimethylxanthine-3-methylpyrazole-5-carboxylate] was run?
**A.** Its serum triglycerides is 30.1 mg% and 73.0 mg% and 67.0 mg% and 64.4 mg% and 60.1 mg% and 44.4 mg% and 58.7 mg% and 101.7 mg% and 67.3 mg%.

**Q.** What about the “serum triglycerides, mean (x10)” value (serum triglycerides; mean, control 133.6) of the same molecule?
**A.** The value was 61.1 mg%.

**Q.** And the LD50 (mice; i.v.)?
**A.** The LD50 was 540 mg/kg.

**Q.** And the LD50 (mice; per oral)?
**A.** The LD50 was “more than 1000 mg/kg”.

**Q.** And the FFS (serum fatty acids (FFS); [1])?
**A.** The FFS was 0.51 μval/ml and 0.58 μval/ml and 0.52 μval/ml and 0.56 μval/ml and 0.57 μval/ml and 0.48 μval/ml and 0.54 μval/ml.

**Q.** What about the “FFS, mean (φ)” value (serum fatty acids (FFS); mean of test series, control φ 0.60) of the same molecule?
**A.** Its value is 0.53 μval/ml.

**Q.** And the TG (serum triglycerides (TG); Table 7, individual animals, 40 mg/kg oral 1 hour before removal of blood, 40 mg/kg)?
**A.** Its TG is 71.6 mg % and 22.9 mg % and 15.8 mg % and 18.6 mg % and 41.5 mg % and 40.1 mg % and 58.7 mg % and 32.9 mg % and 45.8 mg %.

**Q.** What about the “TG, mean (x)” value (serum triglycerides (TG); Table 7, mean, 40 mg/kg oral, control x = 66.4, p<0.0027>Ko) of the same molecule?
**A.** Its value is 36.3 mg %.

**Q.** And the TG (serum triglycerides (TG); Table 8, individual animals, 10 mg/kg oral 1 hour before blood removal, 10 mg/kg)?
**A.** The TG was 48.7 mg % and 54.4 mg % and 83.1 mg % and 55.8 mg % and 74.4 mg % and 81.6 mg % and 51.5 mg % and 40.1 mg %.

**Q.** What about the “TG, mean (x)” value (serum triglycerides (TG); Table 8, mean, 10 mg/kg oral, control x = 86.3, p<0.05>Ko) of the same molecule?
**A.** Its value is 59.8 mg %.

**Q.** And the “serum triglyceride level of normal animals” value (serum triglycerides (TG); doses down to 10 mg/kg, result in words)?
**A.** The value was “significantly reduces the serum triglyceride level”.

**Q.** And the FFS (free fatty acids (FFS); Table 2, individual animals, male rats, starve for 17 hours, 100 mg/kg oral, 1 hour, 100 mg/kg)?
**A.** Its FFS is 0.29 μval/ml and 0.34 μval/ml and 0.54 μval/ml and 0.47 μval/ml and 0.67 μval/ml and 0.46 μval/ml and 0.44 μval/ml and 0.43 μval/ml and 0.39 μval/ml and 0.48 μval/ml and 0.51 μval/ml and 0.45 μval/ml.

**Q.** What about the “FFS, mean (φ)” value (free fatty acids (FFS); Table 2, mean, male rats, starve for 17 hours, 100 mg/kg oral, 1 hour, control φ 0.91, p<0.001) of the same molecule?
**A.** Its value is 0.46 μval/ml.

**Q.** And the FFS (free fatty acids (FFS); Table 4 dose-effect, starved animals, 1 hour, 2.0 mg/kg, n 10, control 0.87, ***p<0.001)?
**A.** Its FFS is 0.51 μval/ml.

**Q.** What about the FFS (free fatty acids (FFS); Table 4 dose-effect, starved animals, 1 hour, 2.5 mg/kg, n 13, control 0.86) of the same molecule?
**A.** The FFS was 0.50 μval/ml.

**Q.** And the FFS (free fatty acids (FFS); Table 4 dose-effect, starved animals, 1 hour, 5 mg/kg, n 5, control 0.83)?
**A.** The FFS was 0.43 μval/ml.

**Q.** And the FFS (free fatty acids (FFS); Table 4 dose-effect, starved animals, 1 hour, 10 mg/kg, n 10, control 0.97)?
**A.** Its FFS is 0.53 μval/ml.

**Q.** And the FFS (free fatty acids (FFS); Table 4 dose-effect, starved animals, 1 hour, 20 mg/kg, n 5, control 0.90)?
**A.** Its FFS is 0.56 μval/ml.

**Q.** And the FFS (free fatty acids (FFS); Table 4 dose-effect, starved animals, 1 hour, 30 mg/kg, n 4, control 1.02)?
**A.** The FFS was 0.54 μval/ml.

**Q.** And the FFS (free fatty acids (FFS); Table 4 dose-effect, starved animals, 1 hour, 40 mg/kg, n 5, control 1.02)?
**A.** Its FFS is 0.48 μval/ml.

**Q.** And the FFS (free fatty acids (FFS); Table 4 dose-effect, starved animals, 1 hour, 50 mg/kg, n 10, control 1.08, **p<0.001)?
**A.** Its FFS is 0.40 μval/ml.

**Q.** And the FFS (free fatty acids (FFS); Table 4 dose-effect, starved animals, 1 hour, 100 mg/kg, n 15, control 0.91, *p<0.001)?
**A.** Its FFS is 0.46 μval/ml.

**Q.** What about the FFS (free fatty acids (FFS); Table 5, individual animals, starved, 1 hour after application, 50 mg/kg) of the same molecule?
**A.** The FFS was 0.39 μval/ml and 0.44 μval/ml and 0.46 μval/ml and 0.40 μval/ml and 0.35 μval/ml and 0.45 μval/ml and 0.37 μval/ml and 0.32 μval/ml and 0.41 μval/ml.

**Q.** And the “FFS, mean” value (free fatty acids (FFS); Table 5, mean, n=10, starved, 1 hour after application, 50 mg/kg, control 1.08, p<0.001)?
**A.** Its value is 0.40 μval/ml.

**Q.** And the FFS (free fatty acids (FFS); Table 6, individual animals, starved, 6 hours after application, 50 mg/kg BW p.o., 50 mg/kg)?
**A.** Its FFS is 0.39 μval/ml and 0.35 μval/ml and 0.43 μval/ml and 0.58 μval/ml and 0.54 μval/ml and 0.63 μval/ml and 0.77 μval/ml and 0.52 μval/ml and 0.51 μval/ml and 0.96 μval/ml and 0.59 μval/ml and 0.78 μval/ml and 0.53 μval/ml and 0.44 μval/ml and 0.64 μval/ml and 0.85 μval/ml and 0.32 μval/ml.

**Q.** And the “FFS, mean (x)” value (free fatty acids (FFS); Table 6, mean, n=21, starved, 6 hours after application, 50 mg/kg BW p.o., control 0.86, p<0.001)?
**A.** The value was 0.57 μval/ml.

**Q.** What about the “lipolysis-inhibiting effect compared with free 3-methylpyrazole-5-carboxylic acid” value (free fatty acids (FFS); equimolar dosage, especially 6 hours after application) of the same molecule?
**A.** The value was “more pronounced than that of the free 3-methylpyrazole-5-carboxylic acid”.

**Q.** And the “cholesterol level of starved rats” value (cholesterol; 100 mg/kg perorally, result in words)?
**A.** Its value is “significantly reduces the cholesterol level”.

**Q.** What about the Cholesterol (cholesterol; individual animals, starve for 18 hours, 100 mg/kg per os 1 hour before killing, 100 mg/kg) of the same molecule?
**A.** Its Cholesterol is 78.45 mg % and 50.86 mg % and 57.76 mg % and 47.71 mg % and 62.07 mg % and 48.28 mg % and 65.52 mg % and 56.03 mg % and 38.79 mg %.

**Q.** What about the “Cholesterol, mean (x10)” value (cholesterol; mean of 10, starve for 18 hours, 100 mg/kg per os 1 hour before killing, control 75.69, p<0.001) of the same molecule?
**A.** Its value is 57.07 mg %.
